Values of other authors, collected in patent US11682473B2, “Skin permeability prediction” (priority 2016, dated 2023).
Where two headings read alike, the source gives them in different places.

Conditions: for log KPexp: uncorrected literature value (permeabilities in cm/h); for log Kp303K: experimental literature values (in vitro diffusion cells), averaged over sources, temperature-corrected to 303 K; for log KP, Experimental: Experimental row of Table 16 (in vitro diffusion cells)

c1ccccc1 [Benzene, benzene]
log KPexp (Texp 25 °C): −0.80
log KPexp (Texp 31 °C): −0.95
log Kp303K: −0.8 cm/h

COc1ccc2c3c1O[C@H]1[C@@H](O)C=C[C@H]4[C@@H](C2)N(C)CC[C@@]341 [Codeine, codeine]
log KP, Experimental: −4.6 cm/h
log KPexp (Texp 37 °C): −4.6
log Kp303K: −4.6 cm/h

CN1CCCC1c1cccnc1 (stereo not shown) [Nicotine, nicotine]
log KP, Experimental: −1.8 cm/h
log KPexp (Texp 25 °C): −1.71
log KPexp (Texp 37 °C): −2.48
log Kp303K: −1.8 cm/h
